{"source": "patent US9763985B2", "about": "“Antigen-specific central-memory T cell preparations having high CD4+ fraction” (priority 2011, dated 2017)", "molecules": {"B1": {"name": "Daclizumab (antibody, chains of the INN, looked up, V domains shown)", "VH": "QVQLVQSGAEVKKPGSSVKVSCKASGYTFTSYRMHWVRQAPGQGLEWIGYINPSTGYTEYNQKFKDKATITADESTNTAYMELSSLRSEDTAVYYCARGGGVFDYWGQGTLVTVSS", "VL": "DIQMTQSPSTLSASVGDRVTITCSASSSISYMHWYQQKPGKAPKLLIYTTSNLASGVPARFSGSGSGTEFTLTISSLQPDDFATYYCHQRSTYPLTFGQGTKVEVK", "notes": "humanized monoclonal antibody against the alpha chain of IL2-receptor complex, CAS number 152923-59-3; b50 calls it Simulect"}}, "format_in_all_cases": "cell-based, human", "key": {"[1]": {"tested_on": "CMV-specific T cells", "assay": "Intracellular cytokine and activation marker staining after antigen specific stimulation with peptide loaded APCs", "conditions": "for quantity and quality of virus-specific T cells: in vitro", "procedure": "(§1) Following antigen specific stimulation, cytokine secretion (IFNγ, TNFα and IL2) and activation marker expression (CD137 and CD154) were determined by intracellular fluorescence staining. All antibodies were purchased from Becton Dickinson (BD), except indicated. Virus infected monocytes and peptide-pool loaded LCL or monocytes (1 μg/mL IE-1/pp65) were added to T cells in diluting ratio of 1:10. Unpulsed LCL or monocytes (DMSO incubated) display unstimulated control. For effector cytokine detection, cultured T cells were re-stimulated for 18 h in the presence of 1 μg/mL brefeldin A (Sigma-Aldrich). For CD107a (H4A3) detection, 2 μM monensin (Golgi Stop, BD) was ancillary added. Cells were then harvested and phenotype was stained with monoclonal antibodies for surface markers CD3 (UCHT1, eBioscience), CD8 (3B5, Invitrogen) and CD4 (SK3). To define memory phenotypes, T cells were extracellularly stained for CCR7 (#150503, R&D), CD62L (DREG56, Beckman Coulter), CD45RA (2H4LDH11LDB9, Beckman Coulter) and CD127 (hIL-7R-M21). To exclude dead cells, live/dead-discrimination staining-dye (Invitrogen) was added. Subsequently, cells were permeabilized with Perm2 solution (BD Biosciences) and stained for IFNγ (4S.B3, eBiosciences), TNFα (MAb11), IL2 (MQ1-17H12), CD137 (4B4-1) and CD154 (TRAP1). To define regulatory T cells, T cells were stained intranuclear for Foxp3 (259D/C7) and Helios (22F6, BioLegend). For intracellular staining of Foxp3 and Helios, Foxp3 staining kit from eBioscience was used. Cells were measured with a LSR-II flow cytometer and analyzed using FlowJo Version 8 software (Tree Star). Lymphocytes were gated based on the FSC versus SSC profile and subsequently gated on FSC (height) versus FSC to exclude doublets.\nCD4+ and CD8+ T cells (A Sirolimus; B aIL2R antagonist). Frequencies were assessed following antigen specific stimulation. Specific T-cells were stimulated for 18 h (16 h Brefeldin A) w/peptide loaded APCs in ratio of 1:10. APCs were pulsed with 1 μg/mL IE-1/pp65 peptide pool. IFNγ, TNFα and IL2 cytokine secretion and CD137 and CD154 activation marker expression were determined by intracellular staining. Cells were permeabilized and stained for IFNγ, IL2, TNFα, live/dead dye, CD3, CD4, CD8, CD137 and CD154."}, "[2]": {"tested_on": "CMV-specific T cells", "assay": "Differentiation / central memory phenotype (CCR7, CD45RA, CD62L, CD127) of expanded CMV-specific T cells", "conditions": "for CD62L expression on purified CD8+ T cells: CD8+ T cells cultured separately; for CD62L expression on purified CD8+ T cells / CD62L expression, CD8+ T cell bulk cultures and separately cultured CD4+ T cells: FIG. 12; for expression of the cell surface marker CD62L: CMV specific T-cell lines, day 18, six independent experiments; for central/memory T cells (CCR7+ CD45RA-): after 18 days of expansion; for expansion rate and keeping the TCM phenotype with full functionality: cultivation with both IL-2 and IL-7, FIG. 13; for CD62L expression, CD8+ T cell bulk cultures and separately cultured CD4+ T cells: rapamycin LD; for TCM formation: together with either IL-2 or IL-7, FIG. 13, four independent experiments", "procedure": "(§2) CMV-specific T-cells were enriched and expanded using a previously described technique (Becker et al., Nat. Med. 2001, 7, 1159-62). Briefly, 4×10^7 autologous PBMCs were stimulated for 6 h with 1 μg/mL overlapping human cytomegalovirus phosphoprotein 65 (pp65) and immediately early 1 protein (IE1) peptide pools (JPT Peptide Technologies). Pools consisted of 15-mer peptides overlapping by 10 amino acids and were dissolved in dimethyl sulfoxide (DMSO). IFNγ producing cells underwent positive selection by the IFNγ capture-system (Miltenyi Biotech) according to the protocol provided by the manufacturer. IFNγ+ cells were next cultured for 18 days in 24-well plates together with 10^7 irradiated autologous PBMCs using RPMI 1640 supplemented with 10% fetal bovine serum 1% Penicillin/Streptomycin (Biochrom) and 50 U/mL rIL2 (Chiron) and 10 ng/mL rIL7 (Cellgenix) or solitary when indicated elsewise. Where indicated, either mTor-inhibitor (sirolimus, Sigma-Aldrich) at very low dose (VLD, 2 nM) and low dose (LD, 20 nM) or IL2 receptor antagonist (Basiliximab, Simulect, Novartis) at 20 μg/mL were added from day 1 on every two days together with subsequent media supplementation.\nas §1"}, "[3]": {"tested_on": "CMV-specific T cells", "assay": "CD4+ and CD8+ expression of CMV-specific T cells after 18 days of expansion (flow cytometry)", "conditions": "for CD4+/CD8+ T cell ratio: after 18 days of expansion, Sirolimus LD 20 nmol/l or VLD 2 nmol/l, aIL2R 20 μg/mL, every 2 days; for CD4+ T cell proportion in the culture: after 18 d expansion", "procedure": "as §2\nas §1, with “Lymphocytes were gated based on the FSC versus SSC profile and subsequently gated on FSC (height) versus FSC to exclude doublets.” left out"}, "[4]": {"tested_on": "CMV strain NEWT infected autologous monocytes", "assay": "Response of expanded T cells to NEWT infected autologous monocytes / iDC", "conditions": "co-culture 18 h, T cell/target ratio 10:1", "procedure": "Differentiated monocytes infected with CMV-related laboratory wildtype strain NEWT were used as targets. To mimic CMV-infection, autologous LCL were pulsed with 1 μg/mL overlapping CMVpp65/IE-1 peptide pools, whereas unpulsed LCL display uninfected targets. Targets were labeled with 10 μM carboxyfluorescein succinimidyl ester (CFDA-SE Molecular Probes). As controls, unpulsed LCL and uninfected differentiated monocytes (Fibroblast incubated) were labeled with 5 μM dimethyldodecylamine oxide-succinimidyl ester (Far Red; Invitrogen). Cells were co-cultured for 16 h in T cell/target ratio of 10:1. Probes were analyzed as triplicates using LSR-II flow cytometer. […] Analysis was gated on live/dead-discrimination staining-dye negative cells (near-IR fluorescent reactive dye, Invitrogen). The mean percent survival of pulsed or NEWT infected targets was calculated relative to antigen-unpulsed controls. Percentaged lytic activity of target lysis was calculated as follows: mean percent survival of targets in cultures containing defined numbers of effector T cells in comparison to control cells without T cells. […]\nFollowing antigen specific stimulation, cytokine secretion (IFNγ, TNFα and IL2) and activation marker expression (CD137 and CD154) were determined by intracellular fluorescence staining. […] Cells were measured with a LSR-II flow cytometer and analyzed using FlowJo Version 8 software (Tree Star). […]"}, "[5]": {"tested_on": "CMV-specific T cells", "assay": "Expansion of CMV-specific T cell culture over 18 days", "conditions": "for expansion of central memory T cells (TCM): after 18 d of treatment, FIG. 4D", "procedure": "as §2"}, "[6]": {"conditions": "day 18, after antigen specific stimulation"}}, "data": [{"molecule": "Basiliximab [aIL2R]", "values": [{"measurement": "CD137 activation marker expression on CD8+ T cells", "setting": "[1]; [6]", "result": "dose-dependent elevated"}, {"measurement": "CD62L expression on purified CD8+ T cells", "setting": "[2]", "result": "could not be enhanced"}, {"measurement": "expression of the cell surface marker CD62L", "setting": "[2]", "result": "significant prolonged expression"}, {"measurement": "central/memory T cells (CCR7+ CD45RA-)", "setting": "[2]", "result": "significantly increases central memory T cells"}, {"measurement": "expansion rate and keeping the TCM phenotype with full functionality", "setting": "[2]", "result": "best results"}, {"measurement": "CD62L expression, CD8+ T cell bulk cultures and separately cultured CD4+ T cells", "setting": "[2]", "result": "increased CD62L expression"}, {"measurement": "TCM formation", "setting": "[2]", "result": "promotes TCM formation"}, {"measurement": "CD4+/CD8+ T cell ratio", "setting": "[3]", "result": "more balanced CD4+/CD8+ T cell ratio"}, {"measurement": "response to NEWT infected autologous monocytes (IFNγ, TNFα, CD137, CD154)", "setting": "[4]", "result": "superiorly respond"}, {"measurement": "expansion of central memory T cells (TCM)", "setting": "[5]", "result": "sequential expansion of both CD4 and CD8 central memory T cells"}]}, {"molecule": "CO[C@H]1C[C@@H]2CC[C@@H](C)[C@@](O)(O2)C(=O)C(=O)N2CCCC[C@H]2C(=O)O[C@H]([C@H](C)C[C@@H]2CC[C@@H](O)[C@H](OC)C2)CC(=O)[C@H](C)/C=C(\\C)[C@@H](O)[C@@H](OC)C(=O)[C@H](C)C[C@H](C)/C=C/C=C/C=C/1C", "note": "[Sirolimus]", "values": [{"measurement": "CD137 activation marker expression on CD8+ T cells", "setting": "[1]; [6]", "result": "dose-dependent elevated"}, {"measurement": "CD137 and CD154 activation marker expression on CD4+ T cells", "setting": "[1]; [6]", "result": "not impaired"}, {"measurement": "quantity and quality of virus-specific T cells", "setting": "[1]", "result": "enhance the quantity and quality"}, {"measurement": "CD62L expression on purified CD8+ T cells", "setting": "[2]", "result": "could not be enhanced"}, {"measurement": "expression of the cell surface marker CD62L", "setting": "[2]", "result": "significant prolonged expression"}, {"measurement": "central/memory T cells (CCR7+ CD45RA-)", "setting": "[2]", "result": "significantly increases central/memory T cells"}, {"measurement": "expansion rate and keeping the TCM phenotype with full functionality", "setting": "[2]", "result": "best results"}, {"measurement": "CD62L expression, CD8+ T cell bulk cultures and separately cultured CD4+ T cells", "setting": "[2]", "result": "increased CD62L expression"}, {"measurement": "TCM formation", "setting": "[2]", "result": "promotes TCM formation"}, {"measurement": "CD4+/CD8+ T cell ratio", "setting": "[3]", "result": "more balanced CD4+/CD8+ T cell ratio"}, {"measurement": "CD4+ T cell proportion in the culture", "setting": "[3]", "result": "increased the CD4+ T cell proportion"}, {"measurement": "response to NEWT infected autologous monocytes (IFNγ, TNFα, CD137, CD154)", "setting": "[4]", "result": "superiorly respond"}, {"measurement": "clonal expansion", "setting": "[5]; 18 days of expansion", "result": "without affecting clonal expansion"}, {"measurement": "expansion of central memory T cells (TCM)", "setting": "[5]", "result": "sequential expansion of both CD4 and CD8 central memory T cells"}]}, {"molecule": "B1", "values": [{"measurement": "quantity and quality of virus-specific T cells", "setting": "[1]", "result": "enhance the quantity and quality"}, {"measurement": "CD4+ T cell proportion in the culture", "setting": "[3]", "result": "increased the CD4+ T cell proportion"}]}]}
